Data as given in US20210317140A1, “Heterocyclic Compounds and Methods of Use” (MEDIVATION TECHNOLOGIES, INC, priority 2013, published 2021).

Key:
BMX/ETK = biological target: T1, BMX/ETK (Homo sapiens, UniProt P51813); assay: BMX/ETK kinase profiling (BTK protocol); type: biochemical; settings: for BMX/ETK @ 0.3 μM (% Inh): 0.3 μM compound; for IC50: 10 dose IC50
T1 construct: purchased Reaction Biology Corporation
T1 sequence (P51813 1-675): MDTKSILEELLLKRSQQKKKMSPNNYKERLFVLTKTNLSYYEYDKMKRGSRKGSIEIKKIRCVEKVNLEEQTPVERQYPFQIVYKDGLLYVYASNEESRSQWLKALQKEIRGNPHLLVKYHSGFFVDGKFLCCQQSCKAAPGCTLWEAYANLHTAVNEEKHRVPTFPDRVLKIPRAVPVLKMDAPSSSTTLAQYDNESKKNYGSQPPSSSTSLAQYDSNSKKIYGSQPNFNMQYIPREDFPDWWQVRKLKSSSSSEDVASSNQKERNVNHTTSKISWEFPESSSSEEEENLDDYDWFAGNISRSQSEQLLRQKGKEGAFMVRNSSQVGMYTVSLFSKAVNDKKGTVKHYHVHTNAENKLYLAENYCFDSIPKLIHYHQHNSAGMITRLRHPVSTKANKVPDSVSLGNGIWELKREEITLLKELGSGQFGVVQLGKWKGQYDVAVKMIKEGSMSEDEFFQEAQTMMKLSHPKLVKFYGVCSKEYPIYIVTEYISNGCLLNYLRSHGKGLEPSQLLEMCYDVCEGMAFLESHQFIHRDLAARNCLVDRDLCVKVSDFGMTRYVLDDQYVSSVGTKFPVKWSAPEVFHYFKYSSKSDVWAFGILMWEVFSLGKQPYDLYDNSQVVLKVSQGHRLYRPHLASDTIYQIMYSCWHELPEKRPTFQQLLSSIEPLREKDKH
Experimental: BTK assay: In vitro profiling protein kinases was performed using the “HotSpot” assay platform. Briefly, specific kinase/substrate pairs along with required cofactors were prepared in reaction buffer. Compounds were prepared as 10 mM stock solutions in DMSO. Compounds were delivered into the reaction, followed 15-20 minutes later by addition of a mixture of ATP (Sigma, St. Louis Mo.) and ^33P ATP (Perkin Elmer, Waltham Mass.) to a final concentration of 10 μM. Reactions were carried out at RT for 120 min, followed by spotting of the reactions onto P81 ion exchange filter paper (Whatman Inc., Piscataway, N.J.). Unbound phosphate was removed by extensive washing of filters in 0.75% Phosphoric acid. […] IC50 values and curve fits were obtained using Prism (GraphPad Software). Buffer Conditions: 20 mM Hepes (pH 7.5), 10 mM MgCl2, 1 mM EGTA, 0.02% Brij35, 0.02 mg/mL BSA, 0.1 mM Na3VO4, 2 mM DTT, 1% DMSO.
Compounds of the invention were profiled in a 10 dose IC50 panel against BMX/ETK, ITK and TEC kinases, provided by Reaction Biology Corporation, applied to the BTK protocol provided in Example B1.

BTK = biological target: T2, BTK (Homo sapiens, UniProt Q06187); assay: BTK kinase assay (HotSpot, 33P ATP); type: biochemical; settings: for IC50: 10 dose IC50, 10 μM ATP; for BTK @ 0.1 μM (% Inh): 0.1 μM compound; for BTK @ 0.1 μM (% Inh) / BTK @ 0.01 μM (% Inh) / BTK @ 1 μM (% Inh): 10 μM ATP; for BTK @ 0.01 μM (% Inh): 0.01 μM compound; for BTK @ 1 μM (% Inh): 1 μM compound
T2 construct: purchased Reaction Biology Corporation
T2 sequence (Q06187 whole entry): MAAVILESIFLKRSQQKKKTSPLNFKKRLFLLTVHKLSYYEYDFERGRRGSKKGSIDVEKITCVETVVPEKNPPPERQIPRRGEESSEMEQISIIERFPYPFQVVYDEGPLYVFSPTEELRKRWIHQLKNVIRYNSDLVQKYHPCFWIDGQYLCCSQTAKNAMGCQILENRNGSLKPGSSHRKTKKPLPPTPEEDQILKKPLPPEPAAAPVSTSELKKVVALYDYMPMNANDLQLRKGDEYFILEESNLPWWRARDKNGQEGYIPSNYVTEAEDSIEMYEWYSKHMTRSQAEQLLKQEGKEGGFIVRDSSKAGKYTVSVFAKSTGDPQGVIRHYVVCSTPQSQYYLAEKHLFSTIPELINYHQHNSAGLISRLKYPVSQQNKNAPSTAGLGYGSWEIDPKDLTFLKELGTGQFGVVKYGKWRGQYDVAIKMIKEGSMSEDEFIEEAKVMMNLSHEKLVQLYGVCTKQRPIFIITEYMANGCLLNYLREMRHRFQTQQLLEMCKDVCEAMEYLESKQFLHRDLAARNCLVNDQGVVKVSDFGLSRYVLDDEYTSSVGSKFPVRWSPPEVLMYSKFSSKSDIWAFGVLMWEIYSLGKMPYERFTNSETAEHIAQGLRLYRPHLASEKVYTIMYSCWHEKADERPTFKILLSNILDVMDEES
Summary of the method: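 In 20 mM Hepes (pH 7.5) with 10 mM MgCl2, 1 mM EGTA, 0.1 mM Na3VO4, 2 mM DTT, 0.02% Brij35, 0.02 mg/mL BSA and 1% DMSO, kinase and substrate were exposed to ten compound doses for 15–20 min.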

CD69+B220+ cells = assay: B cell activation assay (IgD-stimulated splenocytes, CD69+B220+ cells by FACS); type: cell-based; settings: IgD 3 μg/mL, 4 h; for CD69 @ 100 nM (% Inh): 100 nM compound
Summary of the method: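 Mouse splenocytes (female, ~2 months), red cells lysed, at 10^6 cells/mL, pretreated 30 min at 37 °C with 100 nM compound, then anti-IgD 3 μg/mL for 4 h. Read as CD69+B220+ cells as percentage of live B220+ cells by flow cytometry.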

Structure (SMILES)	BMX/ETK @ 0.3 μM (% Inh) (BMX/ETK)	IC50 (BTK) [nM]	BTK @ 0.1 μM (% Inh) (BTK)	CD69 @ 100 nM (% Inh) (CD69+B220+ cells; mouse splenocytes)	BMX/ETK @ 0.3 μM (% Inh) (BMX/ETK; 0.3 µM)	CD69 @ 100 nM (% Inh) (CD69+B220+ cells; mouse splenocytes, 0.1 µM)	IC50 (CD69+B220+ cells; Mus musculus, Splenocyte) [nM]	IC50 (CD69+B220+ cells; mouse splenocytes) [nM]	BTK @ 0.01 μM (% Inh) (BTK)	IC50 (BMX/ETK) [nM]	BTK @ 1 μM (% Inh) (BTK)
Nc1ncnc2c1c(-c1ccc(F)c(O)c1)nn2C1CCc2ccccc2C1 (racemic) [Compound No. 26, 5-(4-amino-1-(1,2,3,4-tetrahydronaphthalen-2-yl)-1H-pyrazolo[3,4-d]pyrimidin-3-yl)-2-fluorophenol]	92.36	10.6	–	–	–	–	–	–	–	–	–
Nc1ncnc2c1c(-c1ccc3cc[nH]c3c1)nn2C1CCc2ccccc2C1 (racemic) [compound 18, 3-(1H-indol-6-yl)-1-(1,2,3,4-tetrahydronaphthalen-2-yl)-1H-pyrazolo[3,4-d]pyrimidin-4-amine]	73.26	258	38.26	13.22 ± 11.84 (n = 5) % Inh	–	–	–	–	–	–	–
Nc1ncnc2c1c(-c1cc(O)cc(F)c1)nn2C1CCc2ccccc2C1 (single isomer, unassigned) [6a, 3-(4-amino-1-(1,2,3,4-tetrahydronaphthalen-2-yl)-1H-pyrazolo[3,4-d]pyrimidin-3-yl)-5-fluorophenol]	–	81.1	63.12	–	84.79	64.71 ± 19.01 (n = 6) % Inh	107 ± 26.2	–	–	–	–
Nc1ncnc2c1c(-c1cc(O)cc(F)c1)nn2C1CCc2ccccc2C1 (single isomer, unassigned) [6b, 3-(4-amino-1-(1,2,3,4-tetrahydronaphthalen-2-yl)-1H-pyrazolo[3,4-d]pyrimidin-3-yl)-5-fluorophenol]	–	112	45.78	–	71.49	68.73 ± 21.60 (n = 6) % Inh	–	118 ± 104	–	–	–
C=CC(=O)N1CC(n2nc(-c3cc(O)cc(F)c3)c3c(N)ncnc32)Cc2cc(C)ccc21 (single isomer, unassigned) [31b, 1-(3-(4-amino-3-(3-fluoro-5-hydroxyphenyl)-1H-pyrazolo[3,4-d]pyrimidin-1-yl)-6-methyl-3,4-dihydroquinolin-1(2H)-yl)prop-2-en-1-one]	88.04	12.1	93.12	–	–	−13.21 ± 4.55 (n = 3) % Inh	–	–	64.36	–	–
Nc1ncnc2c1c(-c1ccc(F)c(O)c1)nn2C1CCc2ccccc2C1 (single isomer, unassigned) [Compound No. 26a, 5-(4-amino-1-(1,2,3,4-tetrahydronaphthalen-2-yl)-1H-pyrazolo[3,4-d]pyrimidin-3-yl)-2-fluorophenol]	–	10.4	84.11	–	–	16.07 ± 15.99 (n = 5) % Inh	–	–	–	3.1	–
Nc1ncnc2c1c(-c1ccc(F)c(O)c1)nn2C1CCc2ccccc2C1 (single isomer, unassigned) [Compound No. 26b, 5-(4-amino-1-(1,2,3,4-tetrahydronaphthalen-2-yl)-1H-pyrazolo[3,4-d]pyrimidin-3-yl)-2-fluorophenol]	–	20.9	82.1	–	–	11.62 ± 20.93 (n = 5) % Inh	–	–	–	6.2	–
Nc1ncnc2c1c(-c1ccc(F)c(O)c1)nn2C1Cc2ccccc2C1 [Compound No. 29, 5-(4-amino-1-indan-2-yl-pyrazolo[3,4-d]pyrimidin-3-yl)-2-fluoro-phenol]	–	7	90.90	17.76 ± 20.69 (n = 9) % Inh	–	–	–	–	–	0.8	–
COc1cc(-c2nn(C3Cc4ccccc4C3)c3ncnc(N)c23)ccc1C [Compound No. 49, 1-(2,3-dihydro-1H-inden-2-yl)-3-(3-methoxy-4-methylphenyl)-1H-pyrazolo[3,4-d]pyrimidin-4-amine]	75.85	57.1	75.02	16.42 ± 20.45 (n = 9) % Inh	–	–	–	–	–	–	96.31
Nc1ncnc2c1c(-c1ccc(Cl)c(O)c1)nn2C1Cc2ccccc2C1 [Compound No. 56, 5-[4-amino-1-(2,3-dihydro-1H-inden-2-yl)-1H-pyrazolo[3,4-d]pyrimidin-3-yl]-2-chlorophenol]	86.63	13.5	90.244	20.57 ± 19.79 (n = 9) % Inh	–	–	–	–	–	–	98.64
Nc1ncnc2c1c(-c1cc(O)cc(F)c1)cn2C1Cc2ccccc2C1 [Compound No. 63, 3-[4-amino-7-(2,3-dihydro-1H-inden-2-yl)-7H-pyrrolo[2,3-d]pyrimidin-5-yl]-5-fluorophenol]	94.69	4.2	92.01	21.07 ± 27.71 (n = 9) % Inh	–	–	–	–	–	–	98.56
COc1ccc(-c2nn(C3Cc4ccccc4C3)c3ncnc(N)c23)cc1O [Compound No. 68, 5-[4-amino-1-(2,3-dihydro-1H-inden-2-yl)-1H-pyrazolo[3,4-d]pyrimidin-3-yl]-2-methoxyphenol]	78.92	84.3	54.54	44.83 ± 29.77 (n = 6) % Inh	–	–	–	–	–	–	89.54
Nc1ncnc2c1c(-c1cc(O)c(F)c(F)c1)nn2C1Cc2ccccc2C1 [Compound No. 81, 5-[4-amino-1-(2,3-dihydro-1H-inden-2-yl)-1H-pyrazolo[3,4-d]pyrimidin-3-yl]-2,3-difluorophenol]	85.6	26.9	73.83	88.08 ± 32.59 (n = 5) % Inh	–	–	106 ± 50.8	–	–	–	94.81
Nc1ncnc2c1c(-c1cc(F)c3c(c1)NCCO3)nn2C1Cc2ccccc2C1 [Compound No. 84, 1-(2,3-dihydro-1H-inden-2-yl)-3-(8-fluoro-3,4-dihydro-2H-1,4-benzoxazin-6-yl)-1H-pyrazolo[3,4-d]pyrimidin-4-amine]	62.51	104	51.83	47.61 ± 24.72 (n = 15) % Inh	–	–	154	–	–	–	90.69
Nc1ncnc2c1c(-c1ccc(Cl)c(O)c1)cn2C1Cc2ccccc2C1 [Compound No. 93, 5-[4-amino-7-(2,3-dihydro-1H-inden-2-yl)-7H-pyrrolo[2,3-d]pyrimidin-5-yl]-2-chlorophenol]	110.06	0.8	96.32	−19.68 ± 39.78 (n = 5) % Inh	–	–	–	–	77.86	–	–
Nc1ncnc2c1c(-c1cc(O)cc(F)c1)nn2C1CCc2ccccc2C1 (stereo not shown) [compound 6, 3-(4-amino-1-(1,2,3,4-tetrahydronaphthalen-2-yl)-1H-pyrazolo[3,4-d]pyrimidin-3-yl)-5-fluorophenol]	–	86.4	–	–	–	–	–	–	–	184	–
C=CC(=O)N1CC(n2nc(-c3cc(O)cc(F)c3)c3c(N)ncnc32)Cc2cc(C)ccc21 (stereo not shown) [compound 31, 1-(3-(4-amino-3-(3-fluoro-5-hydroxyphenyl)-1H-pyrazolo[3,4-d]pyrimidin-1-yl)-6-methyl-3,4-dihydroquinolin-1(2H)-yl)prop-2-en-1-one]	89.72	17.4	68.24	–	–	–	–	–	–	6400	–
